Patent US12152248B2, “Membrane-penetrating peptides to enhanced transfection and compositions and methods for using same” (LIFE TECHNOLOGIES CORPORATION, priority 2013, dated 2024)

What was measured:
Assay type in all cases: cell-based
[1] = tested on: HEK293, HeLa, COS-7, LNCaP, A549 and HepG2; test: Comparison of transfection reagents, GFP fluorescence images (FIG. 2); conditions: panel of six cell lines; pcDNAEF1a/emGFP; 48 hrs; Peptide 1 used with LIPOFECTAMINE® 3000
Description: Transfection complexes for transfecting DNA into cells in culture were prepared according to manufacturer protocol. LIPOFECTAMINE® 2000 and LIPIFECTAMINE® LTX were purchased from Life Technologies Corp. (Carlsbad, CA), FUGENE® HD was purchased from Promega Corp. (Fitchburg, WI), and X-TREMEGENE™ HP was purchased from Roche Diagnostics (Basel, Switzerland).
To prepare transfection complexes containing the non-naturally occurring peptides described above, Peptide 1 having the following sequence […] (SEQ ID NO. 89) was synthesized and provided as a dry powder. The dry powder was reconstituted in sterile ultrapure water to a final concentration of 4.35 mg/ml and allowed to fully dissolve. This stock peptide solution was set aside for use in the next step.
To prepare the lipid aggregate-DNA-peptide complexes, LIPOFECTAMINE® 3000 reagent (Life Technologies Corp., Carlsbad, CA) was obtained. […]
Following the incubation, the lipid-peptide-DNA complexes were added to cells that were seeded the previous day with fresh growth medium; for 96-well plates, 10 μl of the lipid-peptide-DNA was added to the cells, for 24-well plates, 50 μl of the lipid-peptide-DNA mixture was added to the cells, for 6-well plates, 250 μl of the lipid-peptide-DNA was added to the cells. The cells were incubated in the presence of the lipid-peptide-DNA for approximately 24-48 hrs, and analyzed. […]

[2] = tested on: HeLa cells; test: Effect of transfection reagent dosage on transfection efficiency and GFP expression (FIG. 3); conditions: 96-well, 0.1-0.4 μl reagent, Peptide 1 with LIPOFECTAMINE® 3000 vs LIPOFECTAMINE® 2000 and LTX
Excerpt: (§1) FIG. 3A is a graph comparing the relative transfection efficiency for an expression vector encoding GFP transfected into cultured HeLa cells using increasing dosages of three different commercially available lipid aggregate formulations, LIPOFECTAMINE® 2000 (open circles), LIPOFECTAMINE® LTX (open squares), and LIPOFECTAMINE® 3000 in combination with a peptide according to an embodiment (open triangles);
as §1, with “3B” for “3A”, “intensity of GFP expression in HeLa cells transfected with” for “relative transfection efficiency for”, “GFP” for “GFP transfected into cultured HeLa cells”, “dosage” for “dosages”
HeLa cells were plated in 96-well plates and transfected with pcDNAEF1a/emGFP using 0.1 μl, 0.2 μl, 0.3 μl or 0.4 μl of LIPOFECTAMINE® 2000, LIPOFECTAMINE® LTX, or LIPOFECTAMINE® 3000 reagent in combination with Peptide 1 as described in Example 1. Transfection efficiency and relative protein expression as measured by […] was determine for each condition. […]

[3] = tested on: HeLa cells; test: GFP transfection with lipid alone, peptide alone or both (FIG. 8); conditions: 96-well, 48 hrs, Peptide 1 in the presence of LIPOFECTAMINE® 3000, 0.05-0.5 μl
Excerpt: FIG. 8 are bar graphs depicting relative transfection efficiency (upper graph, GFP+ as % of Single Cells Only) or relative expression level per cell (lower graph; Single cells Only Mean FL-1) of HeLa cells transfected with a GFP expression vector using the indicated doses (in μl) of LIPOFECTAMINE® 3000 alone (LF3K), LIPOFECTAMINE® 2000 (LF2K), a peptide according to an embodiment (Peptide 1) or LIPOFECTAMINE® 3000 in combination with a peptide according to an embodiment (LF3K+ Peptide 1);
HeLa cells were seeded onto 96-well plates and transfected for 48 hrs with […] of pcDNAEF1a/emGFP using either 0.05 μl, 0.1 μl, 0.2 μl, 0.3 μl, 0.4 μl, or 0.5 μl of LIPOFECTAMINE® 3000 Reagent alone (LF3K), LIPOFECTAMINE® 2000 (LF2K), Peptide 1 alone (Peptide 1), or LIPOFECTAMINE® 3000 in combination with Peptide 1 as described in Example 1 (LF3K+Peptide 1). Transfection efficiency and protein expression as measured by Fluorescence intensity (FL1-H) were determined. Results are depicted in FIG. 8.

Sequence: SRRARRSPRESGKKRKRKRGGGSGGGSGGGSRRRRRRRRRRR [Peptide 1, 89; MPP DPV10/6 fused to Linker 1 and cationic CP1]
- transfection efficiency (GFP expression, FIG. 2) [1]: improved transfection efficiency substantially
- relative expression of GFP (FIG. 3B) [2]: improves relative expression of GFP in the cells over the entire range of transfection reagent dosages tested
- relative transfection efficiency (FIG. 3A) [2]: improves transfection efficiency of the cells over the entire range of transfection reagent dosages tested
- transfection efficiency and protein expression (FIG. 8) [3]: significantly enhances transfection efficiency and protein expression
